Values quoted from earlier work as cited in article PMC11859340, “The Therapeutic Potential of Spirooxindoles in Cancer: A Focus on p53–MDM2 Modulation” (Pharmaceuticals, 2025).
Where two headings read alike, the source gives them in different places. One block for each compound: values may come before it.

What was measured:
MDA-MB-231 (breast) [1] = test system: MDA-MB-231 (breast); design: method as in PMID 36174446; settings: MTT; read-out: IC50 against MDA-MB-231
PC3 (prostate) = test system: PC3 (prostate); design: method as in PMID 36174446; settings: MTT; read-out: IC50 against PC3
HCT-116 (colon) = test system: HCT-116 (colon); design: method as in PMID 36174446; settings: MTT; read-out: IC50 against HCT-116
A549 (lung) [2] = test system: A549 (lung); design: method as in PMID 36174446; settings: MTT; read-out: IC50 against A549
MDM2 [3] = molecular target: MDM2; design: method as in PMID 36174446; settings: read-out: KD against MDM2
p53 = test system: p53; design: method as in PMID 37175323; settings: 22Rv1 and LNCaP, dose-dependent
MDM2 [4] = test system: MDM2; design: method as in PMID 37175323; settings: induction of protein degradation
A549 (lung) [5] = test system: A549 (lung); design: method as in PMID 26883465; settings: MTT; read-out: IC50 against A549
HCT116 (colon) [6] = test system: HCT116 (colon); design: method as in PMID 26883465; settings: MTT; read-out: IC50 against HCT116
MDA-MB-231 (breast) [7] = test system: MDA-MB-231 (breast); design: method as in PMID 26883465; settings: MTT; read-out: IC50 against MDA-MB-231
neuroblastoma = test system: neuroblastoma; design: method as in PMID 29416773; settings: oral 50 mg/kg body weight for 50 days, 4 days on and 2 days off
PC-3 (p53−) = test system: PC-3 (p53−); design: method as in PMID 30735387; settings: MTT; read-out: IC50 against PC-3 (p53−)
LNCaP (p53+) = test system: LNCaP (p53+); design: method as in PMID 30735387; settings: MTT; read-out: IC50 against LNCaP (p53+)
MCF7 (breast) [8] = test system: MCF7 (breast); design: method as in PMID 26256638; settings: MTT; read-out: IC50 against MCF7
MDA-MB231 (breast) = test system: MDA-MB231 (breast); design: method as in PMID 34970530; settings: MTT; read-out: IC50 against MDA-MB231
HepG-2 (liver) = test system: HepG-2 (liver); design: method as in PMID 34970530; settings: MTT; read-out: IC50 against HepG-2
Caco-2 (colon) = test system: Caco-2 (colon); design: method as in PMID 34970530; settings: MTT; read-out: IC50 against Caco-2
MD-MB-231 = test system: MD-MB-231; design: method as in PMID 25618595; settings: MTT; read-out: IC50 against MD-MB-231
MCF7 = test system: MCF7; design: method as in PMID 25618595; settings: MTT; read-out: IC50 against MCF7
[9] = test system: HepG2 (hepatocellular wild p53 type); design: method as in PMID 24268795; settings: read-out: GI50 against HepG2
HCT116 (p53^−/−) = test system: HCT116 (p53^−/−); design: method as in PMID 24268795; settings: read-out: GI50 against HCT116 (p53^−/−)
A549 (lung) [10] = test system: A549 (lung); design: method as in PMID 28797774; settings: CCK-8; read-out: IC50 against A549
HCT116 (colon) [11] = test system: HCT116 (colon); design: method as in PMID 28797774; settings: CCK-8; read-out: IC50 against HCT116
MCF7 (breast) [12] = test system: MCF7 (breast); design: method as in PMID 28797774; settings: CCK-8; read-out: IC50 against MCF7
A549 (lung) [13] = test system: A549 (lung); design: method as in PMID 29302672; settings: at 10 μM, CCK-8
MCF7 (breast) [14] = test system: MCF7 (breast); design: method as in PMID 29302672; settings: at 10 μM, CCK-8
HCT116 (colon) [15] = test system: HCT116 (colon); design: method as in PMID 29302672; settings: at 10 μM, CCK-8
lung A549 = test system: lung A549; design: method as in PMID 31047751; settings: CCK-8
breast MCF7 = test system: breast MCF7; design: method as in PMID 31047751; settings: CCK-8
colon HCT116 = test system: colon HCT116; design: method as in PMID 31047751; settings: at 10 μM, CCK-8

Compound: O=C(c1nc2ccccc2[nH]1)[C@H]1[C@H](c2ccccc2)C2CC3CCCCC3N2[C@]12C(=O)Nc1ccc(Cl)cc12 (some centres unmarked) [compound 38]
- IC50 (MDA-MB-231 (breast) [1]): 2.4 ± 0.2 µM
- IC50 (PC3 (prostate)): 3.4 ± 0.3 µM
- IC50 (HCT-116 (colon)): 7.2 ± 0.3 µM
- IC50 (A549 (lung) [2]): 7.8 ± 0.3 µM
- Kd (MDM2 [3]): 7.94 µM

Compound: COc1cc(C(N)=O)ccc1NC(=O)[C@H]1[C@H](c2cccc(Cl)c2F)C2(C(=O)Nc3cc(Cl)ccc32)[C@H](CC(C)(C)C)N1C(=O)OCCOCCOCCOCCOC(=O)N1[C@@H](CC(C)(C)C)[C@@]2(C(=O)Nc3cc(Cl)ccc32)[C@@H](c2cccc(Cl)c2F)[C@@H]1C(=O)Nc1ccc(C(N)=O)cc1OC (some centres unmarked) [compound 44]
- p53 levels (p53): increase in p53 levels
- MDM2 level (MDM2 [4]): Downregulation of MDM2

Compound: CC1(C)CCC2(CC1)N[C@@H](C(=O)N[C@@H]1CC[C@@H](C(N)=O)OC1)[C@H](c1ccnc(Cl)c1F)[C@]21C(=O)Nc2cc(Cl)ccc21 [Milademetan]
- tumor growth and survival (neuroblastoma): tumor growth inhibition and extended survival

Compound: COC(=O)C1([N+](=O)[O-])C[C@@H](c2ccccc2)N(c2ccccc2)[C@]12C(=O)Nc1ccccc12 (some centres unmarked)
- IC50 (PC-3 (p53−)): 6.8 to 8.5 µM
- IC50 (LNCaP (p53+)): 6.2 to 7.9 µM

The next lines start with results.

- IC50 (A549 (lung) [5]): 1.67 µM
- IC50 (HCT116 (colon) [6]): 1.57 µM
- IC50 (MDA-MB-231 (breast) [7]): 3.55 µM
Compound: COC(=O)C[C@@H]1CS[C@]2(C(=O)Nc3cccc(Br)c32)[C@H](c2ccc(Br)cc2)[C@H]1C=O [136 (R = 4-Br, R’ = 4-BrC6H4)]

- IC50 (MCF7 (breast) [8]): 10.5 ± 1.6 µM
- IC50 (MDA-MB231 (breast)): 7.05 ± 0.204 µM
- IC50 (Caco-2 (colon)): 1.05 ± 0.156 µM
Compound: O=c1[nH]cc(F)c(=O)[nH]1 [5-fluorouracil]
- IC50 (HepG-2 (liver)): 4.83 ± 0.296 µM

- IC50 (MCF7): 11.6 µM
- GI50 [9]: 51.3 ± 1.04 µM
- GI50 (HCT116 (p53^−/−)): 52.3 ± 1.15 µM
- IC50 (A549 (lung) [5]): 2.22 µM
- IC50 (HCT116 (colon) [6]): 1.16 µM
- IC50 (MDA-MB-231 (breast) [7]): 4.68 µM
- IC50 (A549 (lung) [10]): 10 ± 0.8 µM
- IC50 (HCT116 (colon) [11]): 14.9 ± 0.6 µM
- IC50 (MCF7 (breast) [12]): 28.4 ± 2.5 µM
- IC50 (lung A549; read-out: IC50 against A549): 2.4 µM
- IC50 (breast MCF7; read-out: IC50 against MCF7): 12.1 µM
Compound: COc1ccc(C2=N[C@@H](c3ccc(Cl)cc3)[C@@H](c3ccc(Cl)cc3)N2C(=O)N2CCNC(=O)C2)c(OC(C)C)c1 [nutlin-3, reference compound]
- IC50 (MD-MB-231): 23.5 µM
- % inhibition, A549 (A549 (lung) [13]): 42.9%
- % inhibition, MCF7 (MCF7 (breast) [14]): 33.1%
- % inhibition, HCT116 (HCT116 (colon) [15]): 42.9%
- % inhibition, A549 (lung A549; at 10 μM): 47.0%
- % inhibition, MCF7 (breast MCF7; at 10 μM): 32.8%
- % inhibition, HCT116 (colon HCT116): 64.4%

- IC50 (A549 (lung) [10]): 2.9 ± 0.2 µM
- IC50 (HCT116 (colon) [11]): 1.8 ± 0.5 µM
- IC50 (MCF7 (breast) [12]): 2.4 ± 0.1 µM
Compound: CCN(CC)c1ccc(N2C[C@H]3[C@@H](CS[C@]4(C(=O)Nc5cccc(Br)c54)[C@@H]3c3ccc(Br)cc3)CC2=O)cc1 [143 (R = 4-(4-diethylamino)C6H4)]
